Assay results: US10457707B2, “Substituted urea depsipeptide analogs as activators of the CLPP endopeptidase” (priority 2015, dated 2019)
Values after ≈ are worked out from the molar mass of the structure shown. Like-named read-outs stand apart in the source and are kept apart here. *1 amine or outer side, *2 acyl side, *3 side chain or, on linkers, in order; H or OH if unused. Where a SMILES comes first, the peptide text is derived from it. Bridges are numbered along the chain shown (N, C = ends). [ ]: non-standard residue; d: D form. The star is where a group is joined. ξ: configuration not given here. Phe(3,5-F2) = N[C@@H](Cc1cc(F)cc(F)c1)C(=O)O; Pro(4R-Me) = C[C@H]1CN[C@H](C(=O)O)C1; NMeaThr = CN[C@H](C(=O)O)[C@H](C)O; Hyp = O=C(O)[C@@H]1C[C@@H](O)CN1; Heptenoyl(2E) = CCCC/C=C/C(=O)*; NH(4-Me-phenyl) = Cc1ccc(N*)cc1; ξNMeThr = CNC(C(=O)O)[C@@H](C)O; aThr = C[C@H](O)[C@H](N)C(=O)O; Pip = O=C(O)[C@@H]1CCCCN1; X4 = c1cc2c(cc1N*)CCC2; X8 = c1cc2c(cc1N*)CCO2; X6 = Cc1cc(C)cc(N*)c1; CO = O=C([*:1])[*:2]; X7 = CC/C=C/C(=O)*

What was measured:
Sa-ClpP = target: T1, Sa-ClpP (Staphylococcus aureus, UniProt Q2G036); assay: ADEP displacement fluorescence polarization assay (FP probe ADEP 2591); assay type: binding
T1 construct: made in house; host or cells: E. coli BL21(DE3)
T1 sequence (Q2G036 1-195): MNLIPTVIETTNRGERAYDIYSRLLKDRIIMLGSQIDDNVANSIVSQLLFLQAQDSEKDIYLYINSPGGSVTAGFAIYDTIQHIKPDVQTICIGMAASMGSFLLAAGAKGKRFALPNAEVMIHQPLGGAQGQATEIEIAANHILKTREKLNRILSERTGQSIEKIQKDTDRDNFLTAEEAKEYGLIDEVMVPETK
Description: A fluorescence polarization (FP) assay was used to determine the activity of the disclosed compounds in displacing an ADEP analogue from ClpP. Briefly, the assay was performed in black 384 well, flat bottom, low volume plates (Greiner Bio-One, Monroe, N.C., catalog #784076). 20 μL of a pre-equilibrated (1 hr, room temperature) master mix (15 μM Sa-ClpP, 2% DMSO (v/v) and 50 nM FP probe in Tris*HCl, pH 8.0)) was pipetted into each well using a Well-Mate (Thermo Scientific, Waltham, Mass.). Sa-ClpP was prepared as described above for the ClpP activation assay. The FP probe was ADEP 2591 (structure shown above). The ADEP 2591 comprises a TAMRA fluorophore linked to a core based on modified ADEP 2378 via a short alkyl linker. Using pin transfer, approximately 0.4 μL (2% v/v DMSO) of each compound or control was added per well. After addition of compounds and controls, plates were allowed to incubate for an additional 120 minutes at room temperature. All assays were performed in triplicate. Polarization was monitored using an EnVision Multilabel reader (Perkin-Elmer, Waltham, Mass.) by exciting the FP probe at 530±25 nm, and monitoring fluorescence intensity of both parallel and perpendicular polarized light at 579±25 nm. Readout was in millipolarization units (mP).
Data collected was normalized to values obtained from positive (200 μM ADEP 2378) or negative (DMSO) controls. Curves were fit with non-linear regression using the equation “log [inhibitor] vs. Response-variable slope (four parameters)-symmetrical” in the program Prism 6 (GraphPad Software, La Jolla, Calif. USA, www.graphpad.com). The structures for ADEP 2378 and ADEP 2591 are shown above. ADEP 2378 is (E)-N—((S)-1-(((2R,6S,8aS,14aS,20S,23aS)-2,6-dimethyl-5,8,14,19,23-pentaoxooctadecahydro-1H,5H,14H,19H-pyrido[2,1-i]dipyrrolo[2,1-c:2′,1′-1][1]oxa[4,7,10,13]tetraazacyclohexadecin-20-yl)amino)-1-oxo-3-phenylpropan-2-yl)pent-2-enamide. ADEP 2591 is 5-(3-(3-((6S,9S,11aS,17S,20aS)-6,10-dimethyl-5,8,11,16,20-pentaoxo-17-((S)-2-((E)-pent-2-enamido)-3-phenylpropanamido)hexadecahydro-1H,5H,16H-dipyrrolo[2,1-c:2′,1′-1][1]oxa[4,7,10,13]tetraazacyclohexadecin-9-yl)propyl)thioureido)-2-(6-(dimethylamino)-3-(dimethyliminio)-3H-xanthen-9-yl)benzoate.

[1] = system: Bacillus subtilis, ATCC 23857; assay: Minimal inhibitory concentration assay (microbroth dilution); assay type: cell-based; settings: Bacillus subtilis, ATCC23857, read-out: Minimal Inhibitory Concentrations B. subtilis ATCC 23857
How it was run: (§1)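 MIC is the lowest concentration stopping visible growth after overnight aerobic culture at 37 °C, per CLSI microbroth dilution (about 10^5 cfu/mL; two-fold series, top final 200 μM). ClpP-inactivated S. aureus USA 300 tested alongside parent strain to probe ClpP-mediated killing.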

[2] = system: Staphylococcus aureus, ATCC 29213; assay: as above; assay type: cell-based; settings: ATCC29213, read-out: Minimal Inhibitory Concentrations S. aureus ATCC 29213
How it was run: as §1

[3] = system: Staphylococcus aureus, NRS70; assay: as above; assay type: cell-based
How it was run: as §1

[4] = system: Streptococcus pyogenes, ATCC 700294; assay: as above; assay type: cell-based; settings: Streptococcus pyogenes, ATCC700294, read-out: Minimal Inhibitory Concentrations S. pyogenes ATCC 700294
How it was run: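 Plates with two-fold compound dilution series in broth were incubated overnight, aerobically, at 37° C, following CLSI microdilution guidance.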

[5] = Staphylococcus aureus, NRS70, read-out: Minimal Inhibitory Concentrations S. aureus NRS70
[6] = displacement of FP probe ADEP 2591 from Sa-ClpP, read-out: ADEP Displacement IC50

| Compound | IC50 (Sa-ClpP) [µM] | MIC [1] [µM] | MIC [2] [µM] | MIC [3, 5] [µM] | MIC [4] [µM] | IC50 (Sa-ClpP; [6]) [µM] | MIC ([3]; Staphylococcus aureus, NRS70; read-out: Minimal Inhibitory Concentrations S. aureus NRS70) [µM] |
| --- | --- | --- | --- | --- | --- | --- | --- |
| Cc1ccc(NC(=O)N[C@@H](Cc2cc(F)cc(F)c2)C(=O)N[C@H]2COC(=O)[C@@H]3C[C@@H](C)CN3C(=O)[C@H](C)NC(=O)C3CCCCN3C(=O)[C@@H]3C[C@@H](O)CN3C2=O)cc1 (stereo partly drawn) [Compound 323, (S)-3-(3,5-difluorophenyl)-N-((2R,6S,8aR,14aS,16R,20S,23aS)-16-hydroxy-2,6-dimethyl-5,8,14,19,23-pentaoxooctadecahydro-1H,5H,14H,19H-pyrido[2,1-i]dipyrrolo[2,1-c:2′,1′-l][1]oxa[4,7,10,13]tetraazacyclohexadecin-20-yl)-2-(3-(p-tolyl)ureido)propanamide] | 9.18 ± 0.4 | 0.313 (≈ 0.253 µg/mL) | 0.625 (≈ 0.506 µg/mL) | 0.625 (≈ 0.506 µg/mL) | 0.156 (≈ 0.126 µg/mL) | – | – |
| C[C@@H]1C[C@H]2C(=O)O[C@@H](C)[C@H](NC(=O)[C@H](Cc3cc(F)cc(F)c3)NC(=O)Nc3ccc4c(c3)CCO4)C(=O)N3CCC[C@H]3C(=O)N3CCCC[C@H]3C(=O)N[C@@H](C)C(=O)N2C1 [Compound 305, (S)-3-(3,5-difluorophenyl)-2-(3-(2,3-dihydrobenzofuran-5-yl)ureido)-N-((2R,6S,8aS,14aS,20S,21S,23aS)-2,6,21-trimethyl-5,8,14,19,23-pentaoxooctadecahydro-1H,5H,14H,19H-pyrido[2,1-i]dipyrrolo[2,1-c:2′,1′-l][1]oxa[4,7,10,13]tetraazacyclo-hexadecin-20-yl)propanamide] ({X8-CO}-[Phe(3,5-F2)][aThr]P[Pip]A[Pro(4R-Me)]; ester 2-C) | 7.65 ± 0.5 | – | 0.24 (≈ 0.201 µg/mL) | 0.24 (≈ 0.201 µg/mL) | – | – | – |
| Cc1ccc(NC(=O)N[C@@H](Cc2cc(F)cc(F)c2)C(=O)N[C@@H]2C(=O)N3CCC[C@H]3C(=O)N3CCCC[C@H]3C(=O)N[C@@H](C)C(=O)N3C[C@H](C)C[C@H]3C(=O)O[C@H]2C)cc1 [Compound 209, (S)-3-(3,5-difluorophenyl)-2-(3-(p-tolyl)ureido)-N-((2R,6S,8aS,14aS,20S,21S,23aS)-2,6,21-trimethyl-5,8,14,19,23-pentaoxooctadecahydro-1H,5H,14H,19H-pyrido[2,1-i]dipyrrolo[2,1-c:2′,1′-l][1]oxa[4,7,10,13]tetraazacyclohexadecin-20-yl)propanamide] ({NH(4-Me-phenyl)-CO}-[Phe(3,5-F2)][aThr]P[Pip]A[Pro(4R-Me)]; ester 2-C) | – | 0.05 (≈ 0.0404 µg/mL) | 0.05 (≈ 0.0404 µg/mL) | – | 0.2 (≈ 0.162 µg/mL) | 9 ± 0.4 | – |
| Cc1cc(C)cc(NC(=O)N[C@@H](Cc2cc(F)cc(F)c2)C(=O)N[C@@H]2C(=O)N3CCC[C@H]3C(=O)N3CCCC[C@H]3C(=O)N[C@@H](C)C(=O)N3C[C@H](C)C[C@H]3C(=O)O[C@H]2C)c1 [Compound 304, (S)-3-(3,5-difluorophenyl)-2-(3-(3,5-dimethylphenyl)ureido)-N-((2R,6S,8aS,14aS,20S,21S,23aS)-2,6,21-trimethyl-5,8,14,19,23-pentaoxooctadecahydro-1H,5H,14H,19H-pyrido[2,1-i]dipyrrolo[2,1-c:2′,1′-l][1]oxa[4,7,10,13]tetraazacyclo-hexadecin-20-yl)propanamide] ({X6-CO}-[Phe(3,5-F2)][aThr]P[Pip]A[Pro(4R-Me)]; ester 2-C) | 6.52 ± 0.3 | – | 0.079 (≈ 0.0649 µg/mL) | – | – | – | 0.059 (≈ 0.0485 µg/mL) |
| Cc1ccc(NC(=O)N[C@@H](Cc2cc(F)cc(F)c2)C(=O)N[C@@H]2C(=O)N3CCC[C@H]3C(=O)N(C)[C@@H]([C@H](C)O)C(=O)N[C@@H](C)C(=O)N3C[C@H](C)C[C@H]3C(=O)O[C@H]2C)cc1 [Compound 208, (S)-3-(3,5-difluorophenyl)-N-((2R,6S,9S,11aS,17S,18S,20aS)-9-((S)-1-hydroxyethyl)-2,6,10,18-tetramethyl-5,8,11,16,20-pentaoxohexadecahydro-1H,5H,16H-dipyrrolo[2,1-c:2′,1′-l][1]oxa[4,7,10,13]tetraazacyclohexadecin-17-yl)-2-(3-(p-tolyl)ureido)propanamide] ({NH(4-Me-phenyl)-CO}-[Phe(3,5-F2)][aThr]P[NMeaThr]A[Pro(4R-Me)]; ester 2-C) | – | 0.05 (≈ 0.0406 µg/mL) | 0.05 (≈ 0.0406 µg/mL) | – | 0.1 (≈ 0.0812 µg/mL) | 6.52 ± 0.3 | – |
| C[C@@H]1C[C@H]2C(=O)O[C@@H](C)[C@H](NC(=O)[C@H](Cc3cc(F)cc(F)c3)NC(=O)Nc3ccc4c(c3)CCC4)C(=O)N3CCC[C@H]3C(=O)N3CCCC[C@H]3C(=O)N[C@@H](C)C(=O)N2C1 [Compound 302, (S)-3-(3,5-difluorophenyl)-2-(3-(2,3-dihydro-1H-INDEN-5-yl)ureido)-N-((2R,6S,8aS,14aS,20S,21S,23aS)-2,6,21-trimethyl-5,8,14,19,23-pentaoxooctadecahydro-1H,5H,14H,19H-pyrido[2,1-i]dipyrrolo[2,1-c:2′,1′-l][1]oxa[4,7,10,13]tetraazacyclohexadecin-20-yl)propanamide] ({X4-CO}-[Phe(3,5-F2)][aThr]P[Pip]A[Pro(4R-Me)]; ester 2-C) | 9.64 ± 0.6 | – | 0.059 (≈ 0.0492 µg/mL) | 0.039 (≈ 0.0325 µg/mL) | – | – | – |
| CC/C=C/C(=O)N[C@@H](Cc1cc(F)cc(F)c1)C(=O)N[C@@H]1C(=O)N2C[C@H](O)C[C@H]2C(=O)N2CCCC[C@H]2C(=O)N[C@@H](C)C(=O)N2C[C@H](C)C[C@H]2C(=O)O[C@H]1C [Compound 300] (X7-[Phe(3,5-F2)][aThr][Hyp][Pip]A[Pro(4R-Me)]; ester 2-C) | 5.94 ± 0.3 | – | 1.9 (≈ 1.47 µg/mL) | 2.5 (≈ 1.93 µg/mL) | – | – | – |
| Cc1ccc(NC(=O)N[C@@H](Cc2cc(F)cc(F)c2)C(=O)N[C@H]2COC(=O)[C@@H]3C[C@@H](C)CN3C(=O)[C@H](C)NC(=O)C([C@@H](C)O)N(C)C(=O)[C@@H]3CCCN3C2=O)cc1 (stereo partly drawn) [Compound 322, (S)-3-(3,5-difluorophenyl)-N-((2R,6S,9R,11aS,17S,20aS)-9-((R)-1-hydroxyethyl)-2,6,10-trimethyl-5,8,11,16,20-pentaoxohexadecahydro-1H,5H,16H-dipyrrolo[2,1-c:2′,1′-l][1]oxa[4,7,10,13]tetraazacyclohexadecin-17-yl)-2-(3-(p-tolyl)ureido)propanamide] ({NH(4-Me-phenyl)-CO}-[Phe(3,5-F2)]SP[ξNMeThr]A[Pro(4R-Me)]; ester 2-C) | 8.54 ± 0.4 | 0.078 (≈ 0.0622 µg/mL) | – | 0.313 (≈ 0.25 µg/mL) | 0.625 (≈ 0.499 µg/mL) | – | – |
| CCCC/C=C/C(=O)N[C@@H](Cc1cc(F)cc(F)c1)C(=O)N[C@@H]1C(=O)N2C[C@H](O)C[C@H]2C(=O)N2CCCC[C@H]2C(=O)N[C@@H](C)C(=O)N2C[C@H](C)C[C@H]2C(=O)O[C@H]1C [Compound 301, (E)-N—((S)-3-(3,5-difluorophenyl)-1-(((2R,6S,8aS,14aS,16R,20S,21S,23aS)-16-hydroxy-2,6,21-trimethyl-5,8,14,19,23-pentaoxooctadecahydro-1H,5H,14H,19H-pyrido[2,1-i]dipyrrolo[2,1-c:2′,1′-l][1]oxa[4,7,10,13]tetraazacyclohexadecin-20-yl)amino)-1-oxopropan-2-yl)hept-2-enamide] ({Heptenoyl(2E)}-[Phe(3,5-F2)][aThr][Hyp][Pip]A[Pro(4R-Me)]; ester 2-C) | 7.07 ± 0.3 | – | 0.079 (≈ 0.0633 µg/mL) | 0.079 (≈ 0.0633 µg/mL) | – | – | – |
